Test results: PMC10296036, “Inhibitory Potential of Synthetic Amino Acid Derivatives against Digestive Enzymes as Promising Hypoglycemic and Anti-Obesity Agents” (Biomolecules, 2023)
Where “and” joins values, the source holds several entries; their conditions need not be identical. Equal entries are not always repeated. Marks after values point to notes of the source that are not given here.

Legend:
[1] = target: T1, porcine pancreatic lipase (Sus scrofa, UniProt P00591); test: Pancreatic lipase inhibition assay (I% and IC50); format: biochemical; conditions: for Inhibitory action on pancreatic lipase (in words): tested concentration range; for IC50: mean ± S.E.M., n = 3, substrate p-nitrophenol palmitate, 37 °C, pH 8.0
T1 construct: purchased Sigma-Aldrich
T1 sequence (P00591 1-450): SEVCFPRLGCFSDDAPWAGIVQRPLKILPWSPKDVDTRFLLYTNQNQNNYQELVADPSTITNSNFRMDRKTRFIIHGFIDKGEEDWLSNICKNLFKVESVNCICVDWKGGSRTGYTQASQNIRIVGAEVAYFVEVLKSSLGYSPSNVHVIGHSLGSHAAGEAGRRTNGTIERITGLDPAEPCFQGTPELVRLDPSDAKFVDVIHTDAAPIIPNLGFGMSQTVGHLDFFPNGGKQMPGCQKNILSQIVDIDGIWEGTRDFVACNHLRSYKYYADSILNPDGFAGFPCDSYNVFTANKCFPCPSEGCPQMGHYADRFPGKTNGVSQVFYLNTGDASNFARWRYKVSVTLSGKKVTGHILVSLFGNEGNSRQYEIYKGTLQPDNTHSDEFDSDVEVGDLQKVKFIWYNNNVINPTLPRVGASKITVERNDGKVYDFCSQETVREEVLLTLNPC
Protocol: (§1) The pancreatic lipase inhibition assay was performed according to Santos et al. with some modifications. The porcine pancreatic lipase (10 g/L) was incubated in 50 mmol/L Tris-HCl buffer (pH 8.0) containing 10 mM CaCl2 and 25 mM NaCl. The p-nitrophenol palmitate substrate (8 mM) was dissolved in 0.5% w/v Triton-X 100. […] All reactions were carried out in triplicate.

α-glucosidase [2] = test: α-Glucosidase inhibition assay (I% and IC50); conditions: for Inhibitory action against α-glucosidase (in words): tested concentration range
α-glucosidase [3] = test: Kinetic parameters and Lineweaver-Burk analysis, α-glucosidase; format: biochemical; conditions: for Inhibition mechanism on α-glucosidase: from Km, Vmax and Lineweaver-Burk plots; for Vmax (α-glucosidase in presence of inhibitor) / Slope (Lineweaver-Burk, α-glucosidase): inhibitor concentration: acarbose 387, PPC84 870, PPC89 675, PPC101 532 µM; for Vmax (α-glucosidase in presence of inhibitor): no inhibitor Vmax 62.42 ± 1.14; for Slope (Lineweaver-Burk, α-glucosidase): no inhibitor slope 2.93
Protocol: [20] with some modifications. […] The reaction was stopped in an ice bath. All enzyme reactions were carried out in triplicate. […] Kinetic parameters were determined using the same experimental conditions as described above for each enzyme. […] The enzyme concentrations were maintained as described above. […] The absorbance values were converted into product concentration (μmol/L) using standard curves of glucose (α-amylase) and p-nitrophenol (pancreatic lipase and α-glucosidase). The value of the initial velocity (v0) of enzymatic reactions was estimated to create the “v0 versus substrate concentration” graph. Kinetic constants (Km and Vmax) and slope were calculated, and the inhibition model was verified using Lineweaver-Burk plots.

[4] = target: T2, porcine pancreatic α-amylase (Sus scrofa, UniProt P00690); test: Kinetic parameters and Lineweaver-Burk analysis, pancreatic α-amylase; format: biochemical; conditions: for Inhibition mechanism on pancreatic α-amylase: from Km, Vmax and Lineweaver-Burk plots; for Vmax (pancreatic α-amylase in presence of inhibitor) / Slope (Lineweaver-Burk, pancreatic α-amylase): inhibitor concentration: acarbose 387, PPC80 730, PPC82 795, PPC84 870, PPC89 675, PPC101 532 µM; for Vmax (pancreatic α-amylase in presence of inhibitor): no inhibitor Vmax 100.70 ± 0.34; for Slope (Lineweaver-Burk, pancreatic α-amylase): no inhibitor slope 0.59
T2 construct: purchased Sigma-Aldrich
T2 sequence (P00690 16-511): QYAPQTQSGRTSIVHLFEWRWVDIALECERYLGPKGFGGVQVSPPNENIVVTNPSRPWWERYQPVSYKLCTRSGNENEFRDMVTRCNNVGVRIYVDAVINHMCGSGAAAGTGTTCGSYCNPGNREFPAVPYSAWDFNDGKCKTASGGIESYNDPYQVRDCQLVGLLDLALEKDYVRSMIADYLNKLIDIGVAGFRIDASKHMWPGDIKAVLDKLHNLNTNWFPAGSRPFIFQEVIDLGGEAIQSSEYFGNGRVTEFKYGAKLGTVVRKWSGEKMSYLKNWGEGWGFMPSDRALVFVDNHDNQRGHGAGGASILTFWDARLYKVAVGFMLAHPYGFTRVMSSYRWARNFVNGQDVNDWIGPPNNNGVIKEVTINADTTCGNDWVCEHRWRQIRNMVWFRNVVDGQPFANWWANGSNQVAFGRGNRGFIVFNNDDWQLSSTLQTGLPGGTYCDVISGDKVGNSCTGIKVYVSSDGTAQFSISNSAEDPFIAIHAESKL
Protocol: (§2) The pancreatic α-amylase inhibition assay was carried out according to Freitas et al. with some modifications. The porcine pancreatic α-amylase (1 mg/mL) was incubated in 50 mM Tris-HCl buffer (pH 7.0) containing 10 mM CaCl2 and 1% starch. […] Afterward, microplates were pre-incubated for 10 min in a water bath at 37 °C. […] The reaction was stopped using an ice bath. All reactions were carried out in triplicate.
(§3) Kinetic parameters were determined using the same experimental conditions as described above for each enzyme. […] The enzyme concentrations were maintained as described above. […] The absorbance values were converted into product concentration (µmol/L) using standard curves of glucose (α-amylase) and p-nitrophenol (pancreatic lipase and α-glucosidase). The value of the initial velocity (v0) of enzymatic reactions was estimated to create the “v0 versus substrate concentration” graph. Kinetic constants (Km and Vmax) and slope were calculated, and the inhibition model was verified using Lineweaver–Burk plots.

[5] = target: T2, porcine pancreatic α-amylase; test: Pancreatic α-amylase inhibition assay (I% and IC50); format: biochemical; conditions: for IC50: mean ± S.E.M., n = 3, starch substrate, 37 °C, pH 7.0
Protocol: as §2

[6] = target: T1, porcine pancreatic lipase; design: method as in PMID 12771334; conditions: 100 mg/mL; cited from earlier work
[7] = target: T1, porcine pancreatic lipase; test: Kinetic parameters and Lineweaver-Burk analysis, pancreatic lipase; format: biochemical; conditions: for Inhibition mechanism on pancreatic lipase: from Km, Vmax and Lineweaver-Burk plots; for Vmax (pancreatic lipase in presence of inhibitor) / Slope (Lineweaver-Burk, pancreatic lipase): inhibitor concentration: orlistat 101 µM, PPC80 146 µM, PPC82 159 µM, PPC84 174 µM; for Vmax (pancreatic lipase in presence of inhibitor): no inhibitor Vmax 68.65 ± 0.41; for Slope (Lineweaver-Burk, pancreatic lipase): no inhibitor slope 2.77
Protocol: as §1, §3

Inhibition mechanism on α-glucosidase (α-glucosidase [3]) | Slope (Lineweaver-Burk, α-glucosidase) (α-glucosidase [3]) [min⁻¹] | Inhibition mechanism on pancreatic α-amylase [4] | Vmax (pancreatic α-amylase in presence of inhibitor) [4] | Slope (Lineweaver-Burk, pancreatic α-amylase) [4] [min⁻¹] | IC50 [5] [µM] | IC50 [1] [µM] | Inhibition mechanism on pancreatic lipase [7] | Slope (Lineweaver-Burk, pancreatic lipase) [7] [min⁻¹] | Molecule | Vmax (α-glucosidase in presence of inhibitor) (α-glucosidase [3]) | Vmax (pancreatic lipase in presence of inhibitor) [7] | also measured
competitive inhibitors | 4.11 | competitive-type inhibition mechanism | 99.73 ± 1.77 ^a µM/min | 0.76 | 171 ± 13.6 |  |  |  | CCCCCCCCCCNC(=O)[C@@H](NC(=O)OC(C)(C)C)[C@@H](C)CC [PPC89] | 62.30 ± 1.33 µM/min and 62.30 ± 1.33 ^a µM/min |  | Inhibitory action on pancreatic lipase (in words) [1]: did not show inhibitory action; Inhibition of α-glucosidase (α-glucosidase [2]; 674 µM): ~78%; Inhibitory effect on pancreatic α-amylase (in words) ([5]; 405 µM, compared with acarbose 620 µM): same inhibitory effect as acarbose; inhibition at 675 µM ([5]; 675 µM): ~90%
 |  | competitive-type inhibition mechanism | 99.70 ± 1.20 ^a µM/min | 0.72 | 519 ± 20 | 167 ± 6.25 | competitive mechanism | 5.79 | CCCCCCNC(=O)[C@@H](NC(=O)OC(C)(C)C)[C@@H](C)CC [PPC82] |  | 69.13 ± 0.57 µM/min and 69.13 ± 0.57 ^a µM/min | inhibition at 477 µM ([1]; 477 µM, read-out: Inhibitory effect on pancreatic lipase activity): ~86%; Inhibitory action against α-glucosidase (in words) (α-glucosidase [2]): did not show inhibitory action; inhibition at 1590 µM ([5]; 1590 µM): ~94%
competitive inhibitors | 4.94 | competitive-type inhibition mechanism | 100.00 ± 1.55 ^a µM/min | 0.70 | 162 ± 1.73 |  |  |  | CCCCCCCCCCCCNCCCCNC(=O)[C@@H](NC(=O)OC(C)(C)C)[C@@H](C)CC [PPC101] | 63.09 ± 1.45 µM/min and 63.09 ± 1.45 ^a µM/min |  | Inhibitory action on pancreatic lipase (in words) [1]: did not show inhibitory action; Inhibition of α-glucosidase (α-glucosidase [2]; 67 µM): ~64%; IC50 (α-glucosidase [2]; read-out: IC50 α-Glucosidase, mean ± S.E.M., n = 3, substrate p-nitrophenyl-α-D-glucopyranoside, 37 °C, pH 7.0): 51 ± 1.73 µM; inhibition at 532 µM ([5]; 532 µM): ~86%

More lines, now with the values behind:

Molecule | Inhibition mechanism on α-glucosidase (α-glucosidase [3]) | Slope (Lineweaver-Burk, α-glucosidase) (α-glucosidase [3]) [min⁻¹] | Inhibition mechanism on pancreatic α-amylase [4] | Vmax (pancreatic α-amylase in presence of inhibitor) [4] | Slope (Lineweaver-Burk, pancreatic α-amylase) [4] [min⁻¹] | IC50 [5] [µM] | IC50 [1] [µM] | Inhibition mechanism on pancreatic lipase [7] | Slope (Lineweaver-Burk, pancreatic lipase) [7] [min⁻¹] | Vmax (α-glucosidase in presence of inhibitor) (α-glucosidase [3]) | Vmax (pancreatic lipase in presence of inhibitor) [7] | also measured
Polylysine |  |  |  |  |  |  |  |  |  |  |  | Inhibition of porcine pancreatic lipase activity [6]: 80%
CC[C@H](C)[C@H](NC(=O)OC(C)(C)C)C(=O)NCCCN [PPC84] | competitive inhibitors | 4.29 | non-competitive or mixed inhibition mechanism | 94.35 ± 0.51 µM/min | 0.80 | 493 ± 11 | 1020 ± 20.3 | mixed or non-competitive inhibition mechanism | 3.19 | 62.90 ± 0.60 µM/min and 62.90 ± 0.60 ^a µM/min | 62.76 ± 0.3 µM/min and 62.76 ± 0.35 µM/min | inhibition at 1392 µM ([1]; 1392 µM, read-out: Inhibitory effect on pancreatic lipase activity): ~62%; Inhibition of α-glucosidase (α-glucosidase [2]; 435 µM): ~66%; inhibition at 870 µM ([5]; 870 µM): ~74%
CCCCCCCCCCC[C@@H](C[C@@H]1OC(=O)[C@H]1CCCCCC)OC(=O)[C@H](CC(C)C)NC=O [Orlistat, orlistat, reference compound] |  |  |  |  |  |  |  |  | 4.10 |  | 68.34 ± 0.40 µM/min and 68.34 ± 0.40 ^a µM/min | inhibition at 807 µM ([1]; 807 µM, read-out: Inhibitory effect on pancreatic lipase activity): 60%
C[C@H]1O[C@H](O[C@H]2[C@H](O)[C@@H](O)[C@@H](O[C@H]3[C@H](O)[C@@H](O)C(O)O[C@@H]3CO)O[C@@H]2CO)[C@H](O)[C@@H](O)[C@@H]1N[C@H]1C=C(CO)[C@@H](O)[C@H](O)[C@H]1O (some centres unmarked) [Acarbose, acarbose, reference compound] |  |  |  | 100.30 ± 0.89 ^a µM/min | 0.66 |  |  |  |  |  |  | inhibition at 620 µM ([5]; 620 µM): ~86%
CCCCCCCCNC(=O)[C@@H](NC(=O)OC(C)(C)C)[C@@H](C)CC [PPC80] |  |  | non-competitive or mixed inhibition mechanism | 91.75 ± 0.48 µM/min | 0.89 | 276 ± 5.21 | 475 ± 8.25 | competitive mechanism | 4.65 |  | 68.82 ± 0.57 µM/min and 68.82 ± 0.57 ^a µM/min | inhibition at 584 µM ([1]; 584 µM, read-out: Inhibitory effect on pancreatic lipase activity): ~65%; Inhibitory action against α-glucosidase (in words) (α-glucosidase [2]): did not show inhibitory action; inhibition at 730 µM ([5]; 730 µM): ~93%
